# Key:
# [1] = system: MT-2 cells
# Protocol: (§1) For each viral inhibition assay, a cytotoxicity assay was performed in parallel on uninfected cells by adding 1/10 volume of alamarBlue (Thermo Fisher, Waltham, MA; DAL1199) to the plates, followed by thorough mixing. AlamarBlue-treated plates were incubated for 2 to 3 h at 37°C (the timing was optimized for the linear signal), mixed well, and read using a fluorescence plate reader with 560 nm and 590 nm as the excitation and emission settings, respectively (Synergy H1; BioTek Instruments, Inc.).
# (§2) EC50 and CC50 values were determined in Excel using four-parameter logistic regression analysis of dose-response data generated from the viral inhibition or cytotoxicity assays, respectively. […] Average EC50 and CC50 values were calculated using the geometric mean and average values were reported with the geometric standard deviation (GSD).
# [2] = system: HIV-1 LAI pro– Δenv (pseudotyped with HIV-1 NL4-3 Env); assay: MT-2 acute infection assay (VLP, intracellular Gag, assembly intermediates); settings: MT-2 cells
# Protocol: For Fig. 3B, culture supernatants were collected at 48 h, and virus was pelleted by adding 75 μl of 17% PEG 6000–0.8 M NaCl–PBS to 75 μl of medium from the assay in a 96-well V-bottom polypropylene plate. PEG and media were incubated on ice for 2 h or overnight at 4°C. Virus was pelleted at 1,847 × g for 30 min at 4°C in the plate in an Allegra centrifuge (Beckman), and the pellet was resuspended in 50 μl of loading buffer with dithiothreitol for analysis by WB with αGag. For Fig. 4, culture supernatants were collected at 48 h postinfection and filtered through a 0.45-μm PES syringe filter to remove any remaining cells. Virus-like particles were centrifuged through a 30% (wt/vol) sucrose-PBS cushion at 130,000 × g, 30 min, and 4°C in an SW55Ti rotor (Beckman), and the virus pellet was harvested for analysis by WB with αGag.
# MT-2 cells were diluted to 2 × 10^6 cells/ml with complete RPMI and bulk infected at an MOI of 1 for 2 h at 37°C. Compound was diluted 100-fold to the final required concentration with DMSO. The compound dilutions and DMSO-only controls were then further diluted 50-fold with complete RPMI, and 1 ml of the dilutions was added per well in a 12-well plate. Bulk-infected cells were then washed and adjusted to 0.5 × 10^6 cells/ml, and 1 ml of infected cells was added to each well containing diluted compound or DMSO. At 48 h, the medium was collected for virus pelleting as described above, and the cells were washed and lysed (see “Cell lysis” below).
# MT-2 cells were collected and washed three times by pelleting at 200 × g for 5 min at 4°C in an Allegra centrifuge (Beckman) and resuspending cells in ice-cold PBS. Cell pellets were lysed with 250 μl lysis buffer (20 mM HEPES [pH 7.9], 14 mM potassium acetate, 1 mM MgCl2, 0.3% NP-40), followed by shearing 20× with a 20-gauge needle. Cell lysate was then clarified 200 × g for 10 min at 4°C in an Allegra centrifuge (Beckman). The supernatant was transferred to a fresh tube and further clarified by centrifugation at 18,000 × g for 10 min at 4°C in a Microfuge (Beckman), and the supernatant was transferred to a fresh tube.
# To prepare gradients, 10, 15, 40, 50, 60, 70, and 80% (wt/vol) sucrose solutions were prepared with water, and then each was diluted 1/10 with a 10× stock of the lysis buffer used to harvest cells (see “Cell lysis”). For each gradient, ∼100 μl of cell lysate (∼100 μg of total protein) was layered on a 5-ml step gradient containing equivalent layers of each diluted sucrose solution prepared and subjected to velocity sedimentation in a Beckman MLS-50 rotor 217,000 × g for 45 min at 4°C. Gradients were fractionated from top to bottom, and pelleted material was harvested for WB. Aliquots of fractions and pellet were analyzed by SDS-PAGE, followed by WB with αGag.
# [3] = in vitro; settings: human, CC50
# Protocol: as §1, §2
# [4] = system: FIV 34TF10; assay: FIV inhibition assay (spreading infection, RT activity); type: cell-based, feline immunodeficiency virus
# Protocol: G355-5 cells were transfected in six-well plates, and each well was transfected with 2 μg per well of FIV 34TF10 ORFA+ proviral plasmid. At 24 h posttransfection, the cells were washed, and the medium was replaced with 4 ml of complete McCoy 5A. At 144 h posttransfection, the medium was filtered using a 0.45-μm syringe filter, aliquoted, and stored at −80°C. The reverse transcriptase (RT) activity in media from FIV or mock-transfected cells was estimated using SG-PERT ([94]). A set of recombinant RT standards (EMD Millipore, Molsheim, France; catalog no. 382129) ranging from 5.12E3 to 5.12E9 nU/ml was used to estimate the nU/ml of RT activity in the FIV stock.
# Inhibition of FIV spreading infection was assayed using G355-5 cells, seeded on the prior day at 8,000 cells/well in a 96-well plate.
# [5] = in vitro; type: cell-based; settings: human
# [6] = system: influenza A virus WSN/33 (H1N1) (FLUV); type: cell-based
# [7] = system: HIV-1 NL4-3 RLuc; assay: MT-2 spreading infection assay (inhibition of HIV-1 replication); settings: for EC50: Human immunodeficiency virus 1, NL43, T-cell, 96 h, read-out: EC50 for inhibition of HIV-1 replication; for SI (CC50/EC50): from average values
# Protocol: Inhibition of HIV-1 viral replication was assayed in a spreading infection using MT-2 cells and NL4-3 RLuc reporter virus. For dose-response curves, compounds were initially diluted with DMSO to 100-fold the starting concentration in a 96-well plate and subjected to a series of 3-fold dilutions in DMSO for a total of eight or nine dilutions. If a single compound concentration was tested, the compound was diluted to 100-fold the desired concentration in DMSO. Compounds were then diluted 50-fold with infection media prepared by diluting NL4-3 RLuc virus stock to 400 IU/100 μl with complete RPMI. Then, 100 μl of 50-fold-diluted compound was transferred to 20,000 MT-2 cells that were preseeded in 96-well plates in 100 μl of complete RPMI for a final volume of 200 μl, followed by incubation at 37°C for 96 h. The final MOI in infected plates was 0.02, and the final DMSO concentration in all wells was 1%. All assays were run with three replicates. For each replicate, one well received DMSO only, and one well received medium only for normalization and background correction. […] Plates were read on a luminescence plate reader (Synergy H1; BioTek Instruments, Inc.).
# as §2
# [8] = Cytotoxicity assay on SupT1.CCR5 cells; settings: human, SupT1.CCR5 cells (uninfected)
# Protocol: as §1, §2
# [9] = system: HIV-1 (chronically infected H9 T cells, H9-HIV); assay: Inhibition of HIV-1 late events: virus production (αGag WB of pelleted virus); type: cell-based; settings: Human immunodeficiency virus 1, T-cell
# [10] = in vitro; settings: cat
# Protocol: as §1, §2
# [11] = system: HIV-1 (chronically infected H9 T cells, H9-HIV); assay: Inhibition of HIV-1 late events: infectious virus production by H9-HIV cells; type: cell-based; settings: Human immunodeficiency virus 1, 48 h, titered on TZM-bl cells, read-out: EC50INF (inhibition of infectivity of culture supernatant)
# Protocol: For these experiments, we used H9-HIV, a chronically infected H9 T cell line. Compounds were diluted as described under MT-2 spreading infection above. […] To measure inhibition of virus production (Fig. 3B, blue graph and blot), PEG pelleted virus (harvested as described in “Virus pelleting” above) was analyzed by WB with αGag.
# [12] = system: HIV-1 NL4-3; type: cell-based; settings: MT-2 cells, 37 weeks of selection
# [13] = system: MT-2 cells; assay: Cytotoxicity assay (alamarBlue) on uninfected MT-2 T cells; settings: uninfected MT-2 cells
# Protocol: as §1, §2
# [14] = system: HIV-1 NL4-3; assay: PBMC spreading infection assay; type: cell-based
# Protocol: Thawed, unstimulated PBMCs (BenTech, Seattle, WA) were pelleted by centrifugation 228 × g for 8 min in an Allegra centrifuge (Beckman, Brea, CA). Pellets were resuspended in activation medium containing RPMI supplemented with 21 ng/ml human interleukin-2 (IL-2; […] Remel, San Diego, CA; R30852801), 10% FBS, and 1% penicillin-streptomycin, at a density of 2 × 10^6 cells/ml. After a 3-day incubation, the cells were collected and resuspended in RPMI with 20% FBS and 10% DMSO and then frozen as 50 × 10^6 cells per vial. […] Compound dilutions were prepared in complete PBMC medium as described above, but without virus, and 100 μl of diluted compound was transferred to 96-well U-bottom plates. Bulk-infected cells were pelleted and resuspended in complete PBMC medium at 1 × 10^6 cells/ml, and 100 μl of cell suspension was transferred to each well at 100,000 cells per well with diluted compound. After 96 h, the medium was collected for relative infectivity measurements as for the SupT1.CCR5 spreading infection assay.
# [15] = system: PBMCs; settings: human
# Protocol: as §1, §2
structure (smiles),measurement,setting,value
COc1cc(C)c(/C=C/C2NCCc3cc(OCc4ccccc4)c(OC)cc32)cc1OCc1ccccc1 (stereo not drawn) [PAV-117],CC50 (μM),[1],1.4 ×/÷ 1.5 μM
same,CC50,[1]; human,1100 nM
same,∼EC70 (treatment concentration),[2]; 48 h treatment,~0.25 nM
same,steady-state levels of actin and GAPDH,[2]; 48 h,minimally affected
same,steady-state level of the ∼500S intermediate as a percentage of total Gag,"[2]; 48 h, velocity sedimentation",dose-dependent decrease
same,VLP release into the supernatant,"[2]; protease-deficient provirus, 48 h",dose-dependent reduction
same,steady-state intracellular p55 Gag levels,"[2]; highest PAV-117 concentration tested, 48 h",some reduction
same,CC50,[3],1000 nM
same,EC50,"[4]; Feline immunodeficiency virus, feline G355-5 cells, FIV 34TF10, 144 h, RT activity, read-out: EC50 for inhibition of FIV replication",595 nM
same,fold by which FIV EC50 is lower than CC50 in G355-5 cells,[4]; G355-5 cells,< 2 fold
same,CC50,[5],1600 nM
same,activity against FLUV (infectious titer),[6],not active
same,EC50,[7],48 nM
same,SI (CC50/EC50),[7]; MT-2 cells,14
same,selectivity index (CC50/EC50),"[7]; MT-2 cells, from the shown dose-response curve",21
same,CC50,[8],1100 nM
same,inhibition at 0.002 µM,"[9]; 2 nM, H9-HIV, WB of virus pellets, read-out: % inhibition of virus production (relative to DMSO)",2%
same,inhibition at 0.005 µM,"[9]; 5 nM, H9-HIV, WB of virus pellets, read-out: % inhibition of virus production (relative to DMSO)",7%
same,inhibition at 0.016 µM,"[9]; 16 nM, H9-HIV, WB of virus pellets, read-out: % inhibition of virus production (relative to DMSO)",7%
same,inhibition at 0.049 µM,"[9]; 49 nM, H9-HIV, WB of virus pellets, read-out: % inhibition of virus production (relative to DMSO)",31%
same,inhibition at 0.148 µM,"[9]; 148 nM, H9-HIV, WB of virus pellets, read-out: % inhibition of virus production (relative to DMSO)",48%
same,inhibition at 0.444 µM,"[9]; 444 nM, H9-HIV, WB of virus pellets, read-out: % inhibition of virus production (relative to DMSO)",86%
same,inhibition at 1.333 µM,"[9]; 1333 nM, H9-HIV, WB of virus pellets, read-out: % inhibition of virus production (relative to DMSO)",92%
same,inhibition at 4 µM,"[9]; 4000 nM, H9-HIV, WB of virus pellets, read-out: % inhibition of virus production (relative to DMSO)",96%
same,inhibition at 10 µM,"[9]; 10000 nM, H9-HIV, WB of virus pellets, read-out: % inhibition of virus production (relative to DMSO)",92%
same,EC50,"[9]; H9-HIV cells, 48 h, αGag WB, read-out: EC50VLP (inhibition of virus production, p24 Gag in virus pellets)",113 nM
same,CC50,[10],1100 nM
same,EC50,[11],104 nM
COc1cc(C)c(/C=C/C2NCCc3cc(OCc4ccccc4)c(OC)cc32)cc1OC (stereo not drawn) [PAV-206],CC50 (μM),[1],2.2 ×/÷ 1.4 μM
same,"resistance level reached: compound concentration allowing virus replication, fold higher than the EC50",[12],8 fold
same,CC50MT-2,[13],2811 nM
same,selectivity index,[14]; HIV-1-infected PBMCs,48
same,EC50,"[14]; Human immunodeficiency virus 1, NL43, PBMC, PHA-activated PBMCs, HIV-1 NL4-3, MOI 0.008, 96 h",75 nM
same,EC50,[7],34 nM
same,SI (CC50/EC50),[7]; MT-2 cells,61
same,CC50PBMC,[15],3591 nM

# From PMC7925099, “Identification of an Antiretroviral Small Molecule That Appears To Be a Host-Targeting Inhibitor of HIV-1 Assembly” (Journal of Virology, 2021)
